This passage reports IC50 results from US20090131468A1, “Bis-(Sulfonylamino) Derivatives in Therapy 065” (AstraZeneca AB, priority 2007, published 2009).

The experiment has as its target T1, human mPGES-1 (Homo sapiens, UniProt O14684).
T1 sequence (O14684 1-152): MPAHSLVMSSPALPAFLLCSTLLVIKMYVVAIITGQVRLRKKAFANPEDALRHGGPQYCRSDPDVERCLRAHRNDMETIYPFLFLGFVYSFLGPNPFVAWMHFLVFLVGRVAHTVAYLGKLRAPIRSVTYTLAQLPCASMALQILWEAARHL
The experiment can be described thus: Microsomal prostaglandin E synthase biochemical assay. The note with it: microsome preparation containing human mPGES-1; PGH2 10.8 μM, GSH 2.5 mM, pH 6.8; PGE2 quantified by HTRF; average of at least n=2. As for the experimental part: Compounds were tested as inhibitors of microsomal prostaglandin E synthase activity in microsomal prostaglandin E synthase assays and whole cell assays. These assays measure prostaglandin E2 (PGE2) synthesis which is taken as a measure of prostaglandin E synthase activity. Microsomal prostaglandin E synthase biochemical assays used microsomal prostaglandin E synthase-1 in microsomal preparations. The source of the microsomes can be for example interleukin-1β-stimulated human A549 cells (which express human mPGES-1) or Sf9 cells transfected with plasmids encoding human mPGES-1 cDNA.
A solution of test compound was added to a diluted microsome preparation containing human mPGES-1 and pre-incubated for 15 minutes in potassium phosphate buffer pH 6.8 with cofactor glutathione (GSH). Corresponding solutions without test compound were used as positive controls, and corresponding solutions without test compound and without microsomes were used as negative controls. The enzymatic reaction was then started by addition of the substrate PGH2 in an organic solution (dry acetonitrile).
The reaction was stopped after one minute by adding an acidic solution (pH 1.9) of ferric chloride and citrate (final concentrations 7 mM and 47 mM respectively), by which the PGH2 was sequestered (the PGH2 is reduced to mainly 12-hydroxy heptadecatrineoic acid (12-HHT) which is not detected by the subsequent PGE2 detection step). The resulting solution was then pH neutralized by addition of potassium phosphate buffer, prior to diluting an aliquot of the resulting solution in a weak potassium phosphate buffer (50 mM, pH 6.8) containing 0.2% BSA (w/v). […] The PGE2 formed was quantified by use of a commercial HTRF based kit (catalogue #62PG2PEC or #62P2APEC from Cisbio International). 100% activity was defined as the PGE2 production in positive controls subtracted by the PGE2 production in the negative controls. IC50 values were then determined using standard procedures.

In turn, `NS(=O)(=O)c1ccccc1S(=O)(=O)NC(=O)c1ccc(C#Cc2ccccc2)cc1` [Example 72, 4-(Phenylethynyl)-N-(2-sulfamoylphenylsulfonyl)benzamide] registered an IC50 of 10 nM.
In the case of `CC(C)(C)C#Cc1ccc(C(=O)NS(=O)(=O)c2ccccc2S(N)(=O)=O)cc1F` [Example 73, 4-(3,3-Dimethylbut-1-ynyl)-3-fluoro-N-(2-sulfamoylphenylsulfonyl)benzamide] it was 60 nM; in that of `COc1cccc(-c2cc3cc(C(=O)NS(=O)(=O)c4ccccc4S(N)(=O)=O)ccc3o2)c1` [Example 74, 2-(3-Methoxyphenyl)-N-(2-sulfamoylphenylsulfonyl)benzofuran-5-carboxamide], 24 nM; in that of `COc1ccc(-c2cc3cc(C(=O)NS(=O)(=O)c4ccccc4S(N)(=O)=O)ccc3o2)cc1` [Example 75, 2-(4-Methoxyphenyl)-N-(2-sulfamoylphenylsulfonyl)benzofuran-5-carboxamide], 29 nM.
Under `CC(C)(C)c1cc2cc(C(=O)NS(=O)(=O)c3ccccc3S(N)(=O)=O)ccc2o1` [Example 76, 2-tert-Butyl-N-(2-sulfamoylphenylsulfonyl)benzofuran-5-carboxamide] stands 110 nM; under `NS(=O)(=O)c1ccccc1S(=O)(=O)NC(=O)c1ccc2oc(C3(O)CCCC3)cc2c1` [Example 77, 2-(1-Hydroxycyclopentyl)-N-(2-sulfamoylphenylsulfonyl)benzofuran-5-carboxamide], 720 nM; under `NS(=O)(=O)c1ccccc1S(=O)(=O)NC(=O)c1ccc2oc(C3CCCC3)cc2c1` [Example 78, 2-Cyclopentyl-N-(2-sulfamoylphenylsulfonyl)benzofuran-5-carboxamide], 5700 nM.
`CC(C)(C)C#Cc1ccc(C(=O)NS(=O)(=O)c2ccccc2S(N)(=O)=O)cc1C#N` [Example 79, 3-Cyano-4-(3,3-dimethylbut-1-ynyl)-N-(2-sulfamoylphenylsulfonyl)benzamide] returned an IC50 of 70 nM.
Under `N#Cc1cc(C(=O)NS(=O)(=O)c2ccccc2S(N)(=O)=O)ccc1-c1cc2ccccc2o1` [Example 80, 4-(Benzofuran-2-yl)-3-cyano-N-(2-sulfamoylphenylsulfonyl)benzamide] stands 130 nM.
Under `NS(=O)(=O)c1ccccc1S(=O)(=O)NC(=O)c1ccc(Cl)cc1O` [Example 81, 4-Chloro-2-hydroxy-N-(2-sulfamoylphenylsulfonyl)benzamide] stands 1000 nM.
In the case of `NS(=O)(=O)c1ccccc1S(=O)(=O)NC(=O)c1ccc(Br)cc1O` [Example 82, 4-Bromo-2-hydroxy-N-(2-sulfamoylphenylsulfonyl)benzamide] it was 540 nM; in that of `NS(=O)(=O)c1ccccc1S(=O)(=O)NC(=O)c1ccc(-c2cc3ccccc3o2)cc1F` [Example 83, 4-(Benzofuran-2-yl)-2-fluoro-N-(2-sulfamoylphenylsulfonyl)benzamide], 42 nM; in that of `CC(C)(C)C#Cc1ccc(C(=O)NS(=O)(=O)c2ccccc2S(N)(=O)=O)c(F)c1` [Example 84, 4-(3,3-Dimethylbut-1-ynyl)-2-fluoro-N-(2-sulfamoylphenylsulfonyl)benzamide], 170 nM.
On to `NS(=O)(=O)c1ccccc1S(=O)(=O)NC(=O)c1ccc(C#CC2CCCC2)cc1F` [Example 85, 4-(Cyclopentylethynyl)-2-fluoro-N-(2-sulfamoylphenylsulfonyl)benzamide], for which it took 49 nM to reach half-maximal inhibition (IC50). Compared with the last compound, the IC50 is about 3.5-fold lower.
Under `COc1c(C#CC2CCCC2)ccc(C(=O)NS(=O)(=O)c2ccccc2S(N)(=O)=O)c1F` [Example 86, 4-(Cyclopentylethynyl)-2-fluoro-3-methoxy-N-(2-sulfamoylphenylsulfonyl)benzamide] stands 71 nM.
As to `COc1c(-c2cc3ccccc3o2)ccc(C(=O)NS(=O)(=O)c2ccccc2S(N)(=O)=O)c1F` [Example 87, 4-(Benzofuran-2-yl)-2-fluoro-3-methoxy-N-(2-sulfamoylphenylsulfonyl)benzamide], 16 nM corresponded to half-maximal inhibition (IC50).
Take `NS(=O)(=O)c1ccccc1S(=O)(=O)NC(=O)c1ccc(C#CC2CCCCC2)cn1` [Example 88, 5-(Cyclohexylethynyl)-N-(2-sulfamoylphenylsulfonyl)picolinamide]: inhibition was half-maximal at 140 nM (IC50).
In the case of `CC(C)(C)C#Cc1ccc(C(=O)NS(=O)(=O)c2ccccc2S(N)(=O)=O)nc1` [Example 89, 5-(3,3-Dimethylbut-1-ynyl)-N-(2-sulfamoylphenylsulfonyl)picolinamide] it was 1200 nM; in that of `COc1c(C#CC(C)(C)C)ccc(C(=O)NS(=O)(=O)c2ccccc2S(N)(=O)=O)c1F` [Example 90, 4-(3,3-Dimethylbut-1-ynyl)-2-fluoro-3-methoxy-N-(2-sulfamoylphenylsulfonyl)-benzamide], 260 nM.
Under `NS(=O)(=O)c1ccccc1S(=O)(=O)NC(=O)c1ccc(-c2cc3ccccc3o2)cc1Cl` [Example 91, 4-(Benzofuran-2-yl)-2-chloro-N-(2-sulfamoylphenylsulfonyl)benzamide] stands 120 nM.
Under `NS(=O)(=O)c1ccccc1S(=O)(=O)NC(=O)c1ccc(C#CC2CCCC2)cc1O` [Example 92, 4-(Cyclopentylethynyl)-2-hydroxy-N-(2-sulfamoylphenylsulfonyl)benzamide] stands 19 nM; under `NS(=O)(=O)c1ccccc1S(=O)(=O)NC(=O)c1ccc(C#CC2CCCC2)nc1` [Example 93, 6-(Cyclopentylethynyl)-N-(2-sulfamoylphenylsulfonyl)nicotinamide], 58 nM.
Regarding `NS(=O)(=O)c1ccccc1S(=O)(=O)NC(=O)c1ccc(C#Cc2ccccn2)nc1` [Example 94, 6-(Pyridin-2-ylethynyl)-N-(2-sulfamoylphenylsulfonyl)nicotinamide], half-maximal inhibition (IC50) required 13000 nM.
In the case of `NS(=O)(=O)c1ccccc1S(=O)(=O)NC(=O)c1ccc(C#Cc2cccnc2)nc1` [Example 95, 6-(Pyridin-3-ylethynyl)-N-(2-sulfamoylphenylsulfonyl)nicotinamide] it was 2000 nM; in that of `CC(C)(C)C#Cc1ncc(C(=O)NS(=O)(=O)c2ccccc2S(N)(=O)=O)cn1` [Example 96, 2-(3,3-Dimethylbut-1-ynyl)-N-(2-sulfamoylphenylsulfonyl)pyrimidine-5-carboxamide], 1700 nM; in that of `NS(=O)(=O)c1ccccc1S(=O)(=O)NC(=O)c1ccc(COCCC(F)(F)F)cc1` [Example 97, N-(2-Sulfamoylphenylsulfonyl)-4-((3,3,3-trifluoropropoxy)methyl)benzamide], 5100 nM.
In the case of `NS(=O)(=O)c1ccccc1S(=O)(=O)NC(=O)c1ccc(C#CC2CCCC2)c(CO)c1` [Example 98, 4-(Cyclopentylethynyl)-3-(hydroxymethyl)-N-(2-sulfamoylphenylsulfonyl)benzamide] it was 110 nM.
In the case of `CC(C)C#Cc1ccc(C(=O)NS(=O)(=O)c2ccccc2S(N)(=O)=O)cn1` [Example 99, 6-(3-Methylbut-1-ynyl)-N-(2-sulfamoylphenylsulfonyl)nicotinamide] it was 400 nM; in that of `NS(=O)(=O)c1ccccc1S(=O)(=O)NC(=O)c1ccc(C#Cc2ccccc2)c(CO)c1` [Example 100, 3-(Hydroxymethyl)-4-(phenylethynyl)-N-(2-sulfamoylphenylsulfonyl)benzamide], 70 nM.
For the compound `NS(=O)(=O)c1ccccc1S(=O)(=O)NC(=O)c1ccc(C#CC2CCCCC2)c(CO)c1` [Example 101, 4-(Cyclohexylethynyl)-3-(hydroxymethyl)-N-(2-sulfamoylphenylsulfonyl)benzamide], 48 nM corresponded to half-maximal inhibition (IC50).
For the compound `NS(=O)(=O)c1ccccc1S(=O)(=O)NC(=O)c1cnc(C#Cc2ccc(Cl)cc2)nc1` [Example 102, 2-((4-chlorophenyl)ethynyl)-N-(2-sulfamoylphenylsulfonyl)pyrimidine-5-carboxamide], 53 nM corresponded to half-maximal inhibition (IC50).
In the case of `NS(=O)(=O)c1ccccc1S(=O)(=O)NC(=O)c1ccc(-c2cc3ccccc3o2)c(CO)c1` [Example 103, 4-(Benzofuran-2-yl)-3-(hydroxymethyl)-N-(2-sulfamoylphenylsulfonyl)benzamide] it was 15 nM.
Turning to `NS(=O)(=O)c1ccccc1S(=O)(=O)NC(=O)[C@H]1CC[C@@H](c2cc3ccccc3o2)CC1` [Example 105, (1s,4s)-4-(Benzofuran-2-yl)-N-(2-sulfamoylphenylsulfonyl)cyclohexanecarboxamide], the IC50 was 2100 nM. This IC50 lies about 140-fold higher than the previous one.
In the case of `NS(=O)(=O)c1ccccc1S(=O)(=O)NC(=O)[C@H]1CC[C@H](c2cc3ccccc3o2)CC1` [Example 106, (1r,4r)-4-(Benzofuran-2-yl)-N-(2-sulfamoylphenylsulfonyl)cyclohexanecarboxamide] it was 140 nM.
